In ChEMBL document CHEMBL4038287, “Design, synthesis, and in vitro evaluation of novel antifungal triazoles” (2017):
In brackets after ≈: the same amount, converted by molar mass.

What was measured:
Assay type in all cases: functional
[1] = test system: Candida parapsilosis; assay: Antifungal activity against Candida parapsilosis isolate 22019 by micro-broth dilution method; details: Lodderomyces parapsilosis
[2] = test system: Trichophyton rubrum; assay: Antifungal activity against Trichophyton rubrum isolate cmccftla by micro-broth dilution method
[3] = test system: Aspergillus fumigatus; assay: Antifungal activity against Aspergillus fumigatus isolate 7544 by micro-broth dilution method
[4] = test system: Candida albicans; assay: Antifungal activity against Candida albicans isolate Y0109 by micro-broth dilution method
[5] = test system: Nakaseomyces glabratus; assay: Antifungal activity against Candida glabrata isolate 537 by micro-broth dilution method
[6] = test system: Candida albicans; assay: Antifungal activity against Candida albicans isolate SC5314 by micro-broth dilution method
[7] = test system: Cryptococcus neoformans; assay: Antifungal activity against Cryptococcus neoformans isolate 32605 by micro-broth dilution method
[8] = test system: Nannizzia gypsea; assay: Antifungal activity against Microsporum gypseum isolate cmccftla by micro-broth dilution method

## C[C@@H](c1cc(-c2ccc(S(C)(=O)=O)cc2)no1)[C@](O)(Cn1cncn1)c1ccc(F)cc1F
[1]
  MIC80: 0.125 µg/mL (≈ 0.263 µM)
[2]
  MIC80: 1 µg/mL (≈ 2.11 µM)
[3]
  MIC80: 8 µg/mL (≈ 16.9 µM)
[4]
  MIC80: 0.125 µg/mL (≈ 0.263 µM)
[5]
  MIC80: 0.25 µg/mL (≈ 0.527 µM)
[6]
  MIC80: 0.125 µg/mL (≈ 0.263 µM)
[7]
  MIC80: 0.25 µg/mL (≈ 0.527 µM)
[8]
  MIC80: 4 µg/mL (≈ 8.43 µM)

## C[C@@H](c1cc(-c2ccccc2F)no1)[C@](O)(Cn1cncn1)c1cc(F)ccc1F
[1]
  MIC80: 1 µg/mL (≈ 2.41 µM)
[2]
  MIC80: 2 µg/mL (≈ 4.83 µM)
[3]
  MIC80: > 8 µg/mL
[4]
  MIC80: 0.5 µg/mL (≈ 1.21 µM)
[5]
  MIC80: 0.0625 µg/mL (≈ 0.151 µM)
[6]
  MIC80: 0.5 µg/mL (≈ 1.21 µM)
[7]
  MIC80: 0.0625 µg/mL (≈ 0.151 µM)
[8]
  MIC80: > 8 µg/mL

## C[C@@H](c1cc(-c2ccc(Cl)cc2F)no1)[C@](O)(Cn1cncn1)c1ccc(F)cc1F
[1]
  MIC80: 0.125 µg/mL (≈ 0.279 µM)
[2]
  MIC80: 0.25 µg/mL (≈ 0.557 µM)
[3]
  MIC80: 8 µg/mL (≈ 17.8 µM)
[4]
  MIC80: 0.125 µg/mL (≈ 0.279 µM)
[5]
  MIC80: 0.0156 µg/mL (≈ 0.0348 µM)
[6]
  MIC80: 0.125 µg/mL (≈ 0.279 µM)
[7]
  MIC80: 0.0313 µg/mL (≈ 0.0697 µM)
[8]
  MIC80: 2 µg/mL (≈ 4.46 µM)

## C[C@@H](c1cc(-c2cc(F)ccc2F)no1)[C@](O)(Cn1cncn1)c1cc(F)ccc1F
[1]
  MIC80: 1 µg/mL (≈ 2.31 µM)
[2]
  MIC80: 8 µg/mL (≈ 18.5 µM)
[3]
  MIC80: > 8 µg/mL
[4]
  MIC80: 0.5 µg/mL (≈ 1.16 µM)
[5]
  MIC80: 0.125 µg/mL (≈ 0.289 µM)
[6]
  MIC80: 1 µg/mL (≈ 2.31 µM)
[7]
  MIC80: 0.125 µg/mL (≈ 0.289 µM)
[8]
  MIC80: > 8 µg/mL

## C[C@@H](c1cc(-c2ccc(F)c(F)c2)no1)[C@](O)(Cn1cncn1)c1ccc(F)cc1F
[1]
  MIC80: 0.125 µg/mL (≈ 0.289 µM)
[2]
  MIC80: 0.5 µg/mL (≈ 1.16 µM)
[3]
  MIC80: 8 µg/mL (≈ 18.5 µM)
[4]
  MIC80: 0.125 µg/mL (≈ 0.289 µM)
[5]
  MIC80: 0.0156 µg/mL (≈ 0.0361 µM)
[6]
  MIC80: 0.125 µg/mL (≈ 0.289 µM)
[7]
  MIC80: 0.125 µg/mL (≈ 0.289 µM)
[8]
  MIC80: 4 µg/mL (≈ 9.25 µM)

## C[C@@H](c1cc(-c2c(F)ccc(F)c2F)no1)[C@](O)(Cn1cncn1)c1ccc(F)cc1F
[1]
  MIC80: 0.125 µg/mL (≈ 0.278 µM)
[2]
  MIC80: 0.0625 µg/mL (≈ 0.139 µM)
[3]
  MIC80: 2 µg/mL (≈ 4.44 µM)
[4]
  MIC80: 0.125 µg/mL (≈ 0.278 µM)
[5]
  MIC80: 0.0625 µg/mL (≈ 0.139 µM)
[6]
  MIC80: 0.25 µg/mL (≈ 0.555 µM)
[7]
  MIC80: 0.0625 µg/mL (≈ 0.139 µM)
[8]
  MIC80: 0.5 µg/mL (≈ 1.11 µM)

## C[C@@H](c1cc(-c2ccc([N+](=O)[O-])cc2)no1)[C@](O)(Cn1cncn1)c1ccc(F)cc1F
[1]
  MIC80: 0.5 µg/mL (≈ 1.13 µM)
[2]
  MIC80: 1 µg/mL (≈ 2.27 µM)
[3]
  MIC80: > 8 µg/mL
[4]
  MIC80: 0.125 µg/mL (≈ 0.283 µM)
[5]
  MIC80: 0.5 µg/mL (≈ 1.13 µM)
[6]
  MIC80: 0.125 µg/mL (≈ 0.283 µM)
[7]
  MIC80: 0.125 µg/mL (≈ 0.283 µM)
[8]
  MIC80: 2 µg/mL (≈ 4.53 µM)

## C[C@@H](c1cc(-c2ccc(F)cc2)no1)[C@](O)(Cn1cncn1)c1ccc(F)cc1F
[1]
  MIC80: 0.0625 µg/mL (≈ 0.151 µM)
[2]
  MIC80: 0.0625 µg/mL (≈ 0.151 µM)
[3]
  MIC80: 2 µg/mL (≈ 4.83 µM)
[4]
  MIC80: 0.125 µg/mL (≈ 0.302 µM)
[5]
  MIC80: 0.0313 µg/mL (≈ 0.0755 µM)
[6]
  MIC80: 0.25 µg/mL (≈ 0.603 µM)
[7]
  MIC80: 0.125 µg/mL (≈ 0.302 µM)
[8]
  MIC80: 0.5 µg/mL (≈ 1.21 µM)

## C[C@@H](c1cc(-c2ccc(Cl)c(F)c2)no1)[C@](O)(Cn1cncn1)c1ccc(F)cc1F
[1]
  MIC80: 0.5 µg/mL (≈ 1.11 µM)
[2]
  MIC80: 0.5 µg/mL (≈ 1.11 µM)
[3]
  MIC80: > 8 µg/mL
[4]
  MIC80: 0.0156 µg/mL (≈ 0.0348 µM)
[5]
  MIC80: 0.25 µg/mL (≈ 0.557 µM)
[6]
  MIC80: 0.0313 µg/mL (≈ 0.0697 µM)
[7]
  MIC80: 0.25 µg/mL (≈ 0.557 µM)
[8]
  MIC80: 4 µg/mL (≈ 8.91 µM)

## C[C@@H](c1cc(-c2cccc(F)c2F)no1)[C@](O)(Cn1cncn1)c1cc(F)ccc1F
[1]
  MIC80: 2 µg/mL (≈ 4.63 µM)
[2]
  MIC80: 8 µg/mL (≈ 18.5 µM)
[3]
  MIC80: > 8 µg/mL
[4]
  MIC80: 0.5 µg/mL (≈ 1.16 µM)
[5]
  MIC80: 0.125 µg/mL (≈ 0.289 µM)
[6]
  MIC80: 0.5 µg/mL (≈ 1.16 µM)
[7]
  MIC80: 0.125 µg/mL (≈ 0.289 µM)
[8]
  MIC80: > 8 µg/mL

## C[C@@H](c1cc(-c2cc(F)ccc2F)no1)[C@](O)(Cn1cncn1)c1ccc(F)cc1F
[1]
  MIC80: 0.125 µg/mL (≈ 0.289 µM)
[2]
  MIC80: 0.125 µg/mL (≈ 0.289 µM)
[3]
  MIC80: 4 µg/mL (≈ 9.25 µM)
[4]
  MIC80: 0.0625 µg/mL (≈ 0.145 µM)
[5]
  MIC80: 0.0625 µg/mL (≈ 0.145 µM)
[6]
  MIC80: 0.0625 µg/mL (≈ 0.145 µM)
[7]
  MIC80: 0.125 µg/mL (≈ 0.289 µM)
[8]
  MIC80: 1 µg/mL (≈ 2.31 µM)

## C[C@@H](c1cc(-c2ccc(F)c(F)c2)no1)[C@](O)(Cn1cncn1)c1cc(F)ccc1F
[1]
  MIC80: 0.25 µg/mL (≈ 0.578 µM)
[2]
  MIC80: 1 µg/mL (≈ 2.31 µM)
[3]
  MIC80: > 8 µg/mL
[4]
  MIC80: 0.125 µg/mL (≈ 0.289 µM)
[5]
  MIC80: 0.0156 µg/mL (≈ 0.0361 µM)
[6]
  MIC80: 0.125 µg/mL (≈ 0.289 µM)
[7]
  MIC80: 0.125 µg/mL (≈ 0.289 µM)
[8]
  MIC80: > 8 µg/mL

## C[C@@H](c1cc(-c2cc(F)cc(F)c2)no1)[C@](O)(Cn1cncn1)c1ccc(F)cc1F
[1]
  MIC80: 0.25 µg/mL (≈ 0.578 µM)
[2]
  MIC80: 0.25 µg/mL (≈ 0.578 µM)
[3]
  MIC80: 4 µg/mL (≈ 9.25 µM)
[4]
  MIC80: 0.0625 µg/mL (≈ 0.145 µM)
[5]
  MIC80: 0.0625 µg/mL (≈ 0.145 µM)
[6]
  MIC80: 0.125 µg/mL (≈ 0.289 µM)
[7]
  MIC80: 0.125 µg/mL (≈ 0.289 µM)
[8]
  MIC80: 2 µg/mL (≈ 4.63 µM)

## C[C@@H](c1cc(-c2ccc(C#N)cc2)no1)[C@](O)(Cn1cncn1)c1ccc(F)cc1F
[1]
  MIC80: 0.125 µg/mL (≈ 0.297 µM)
[2]
  MIC80: 0.125 µg/mL (≈ 0.297 µM)
[3]
  MIC80: 8 µg/mL (≈ 19 µM)
[4]
  MIC80: 0.25 µg/mL (≈ 0.593 µM)
[5]
  MIC80: 0.0625 µg/mL (≈ 0.148 µM)
[6]
  MIC80: 0.25 µg/mL (≈ 0.593 µM)
[7]
  MIC80: 0.125 µg/mL (≈ 0.297 µM)
[8]
  MIC80: 1 µg/mL (≈ 2.37 µM)

## C[C@@H](c1cc(-c2ccc(OC(F)F)cc2)no1)[C@](O)(Cn1cncn1)c1ccc(F)cc1F
[1]
  MIC80: 0.125 µg/mL (≈ 0.27 µM)
[2]
  MIC80: 0.125 µg/mL (≈ 0.27 µM)
[3]
  MIC80: 8 µg/mL (≈ 17.3 µM)
[4]
  MIC80: 0.0625 µg/mL (≈ 0.135 µM)
[5]
  MIC80: 0.0625 µg/mL (≈ 0.135 µM)
[6]
  MIC80: 0.0625 µg/mL (≈ 0.135 µM)
[7]
  MIC80: 0.125 µg/mL (≈ 0.27 µM)
[8]
  MIC80: 1 µg/mL (≈ 2.16 µM)

## C[C@@H](c1cc(-c2cccc(F)c2F)no1)[C@](O)(Cn1cncn1)c1ccc(F)cc1F
[1]
  MIC80: 0.25 µg/mL (≈ 0.578 µM)
[2]
  MIC80: 0.125 µg/mL (≈ 0.289 µM)
[3]
  MIC80: 2 µg/mL (≈ 4.63 µM)
[4]
  MIC80: 0.0625 µg/mL (≈ 0.145 µM)
[5]
  MIC80: 0.125 µg/mL (≈ 0.289 µM)
[6]
  MIC80: 0.0625 µg/mL (≈ 0.145 µM)
[7]
  MIC80: 0.125 µg/mL (≈ 0.289 µM)
[8]
  MIC80: 0.5 µg/mL (≈ 1.16 µM)
